Like-named read-outs stand apart in the source and are kept apart here.
Tests used:
[1] = tested on: HUT-78 cells; experiment: Cellular uptake and extrusion of photosensitizer (flow cytometry MFI); assay type: cell-based; conditions: ±SE; for Uptake MFI: 2.5 × 10^−7 M photosensitizer, 20 minutes exposure; for % Extrusion: percent change in MFI after 18 hour extrusion period, 2.5 × 10^−7 M
Description: Cellular Uptake and Extrusion of Chalcogenorhodamine Photosensitizers. […] Cellular uptake of the chalcogenorhodamine photosensitizers was measured after a 20 minute exposure to 2.5×10^−7 M photosensitizer in malignant T cells (HUT-78 cells, Table 2). Transmembrane movement of the photosensitizers in the secretory direction (basolateral to apical) was measured after an 18-h extrusion period. As described above, the Se-containing molecules fluoresced at a lower intensity relative to the S-containing molecules. […] Overall, the PF6^− salts were more slowly extruded from cells relative to the chloride salts of the amide, with a greater difference in the extrusion kinetics noted between the thiorhodamine PF6 salts compared to the selenorhodamine chloride salts.

[2] = Fluorescence quantum yield in MeOH; assay type: physicochemical; conditions: for ΦF of sulfur analogue relative to selenium analogue: MeOH; for ΦF, MeOH: quantum yield for fluorescence in MeOH
[3] = target: P-gp (Homo sapiens, UniProt P08183); conditions: cited from earlier work
P-gp, sequence (P08183 whole entry): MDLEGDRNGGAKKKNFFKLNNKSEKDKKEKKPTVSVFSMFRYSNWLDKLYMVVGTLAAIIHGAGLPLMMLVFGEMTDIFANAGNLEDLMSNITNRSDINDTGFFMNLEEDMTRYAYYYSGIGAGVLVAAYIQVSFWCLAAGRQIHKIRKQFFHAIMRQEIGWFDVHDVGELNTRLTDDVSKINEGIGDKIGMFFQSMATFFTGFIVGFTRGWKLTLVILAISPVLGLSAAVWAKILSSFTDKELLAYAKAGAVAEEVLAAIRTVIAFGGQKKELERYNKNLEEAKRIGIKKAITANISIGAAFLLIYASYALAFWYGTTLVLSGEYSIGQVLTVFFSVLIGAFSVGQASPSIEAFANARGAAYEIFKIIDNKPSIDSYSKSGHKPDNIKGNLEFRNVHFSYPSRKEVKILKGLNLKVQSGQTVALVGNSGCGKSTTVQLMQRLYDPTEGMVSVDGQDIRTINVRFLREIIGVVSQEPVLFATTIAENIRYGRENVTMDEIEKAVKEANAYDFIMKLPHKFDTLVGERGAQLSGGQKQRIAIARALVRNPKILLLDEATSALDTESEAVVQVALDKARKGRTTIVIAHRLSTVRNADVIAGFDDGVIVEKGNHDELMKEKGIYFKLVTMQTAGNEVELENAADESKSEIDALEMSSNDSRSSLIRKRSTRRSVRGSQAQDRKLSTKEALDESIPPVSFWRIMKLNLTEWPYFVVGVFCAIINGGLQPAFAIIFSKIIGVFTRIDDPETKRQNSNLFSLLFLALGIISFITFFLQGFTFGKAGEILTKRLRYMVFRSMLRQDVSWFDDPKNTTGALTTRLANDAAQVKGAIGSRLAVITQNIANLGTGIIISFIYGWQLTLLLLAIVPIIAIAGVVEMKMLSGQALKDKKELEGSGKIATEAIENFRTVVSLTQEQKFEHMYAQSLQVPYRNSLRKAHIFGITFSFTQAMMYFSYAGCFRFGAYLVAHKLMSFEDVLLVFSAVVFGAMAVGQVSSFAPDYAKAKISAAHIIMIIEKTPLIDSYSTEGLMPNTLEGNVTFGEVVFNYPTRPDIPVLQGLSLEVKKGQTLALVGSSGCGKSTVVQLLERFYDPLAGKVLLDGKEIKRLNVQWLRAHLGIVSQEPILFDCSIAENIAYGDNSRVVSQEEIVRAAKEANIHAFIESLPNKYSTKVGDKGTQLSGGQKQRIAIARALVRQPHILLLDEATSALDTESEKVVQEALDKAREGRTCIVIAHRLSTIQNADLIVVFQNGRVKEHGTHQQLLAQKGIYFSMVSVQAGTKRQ

[4] = n-octanol / PBS pH 7.4, shake flask

For `CN(C)c1ccc2c(-c3ccc(C(=S)N4CCCCC4)s3)c3cc4c5c(c3[s+]c2c1)CCCN5CCC4.[Cl-]` [5-S—Cl], the “Uptake MFI” value [1] was 76661 (±5618), the “% Extrusion” value [1] was 76.13 (±5.21) % and the “ΦF of sulfur analogue relative to selenium analogue” value [2] was “roughly 30 fold”. The “ΦF, MeOH” value [2] was 0.30 ± 0.01 and the “log P” value [4] was 2.97 ± 0.06.

In the case of `CN(C)c1ccc2c(-c3ccc(C(=O)N4CCCCC4)s3)c3cc4c5c(c3[s+]c2c1)CCCN5CCC4.F[P-](F)(F)(F)(F)F` [6-S—PF6], the “Uptake MFI” value [1] is reported as 114190, the “% Extrusion” value [1] is reported as 82.54 (±1.17) % and the “ΦF, MeOH” value [2] is reported as 0.36 ± 0.01. For the same compound, the “effect on ATPase activity in P-gp” value [3] was “stimulate ATPase activity” and the “log P” value [4] was 1.9.

For `CCN(CC)C(=S)c1ccc(-c2c3ccc(=[N+](C)C)cc-3sc3cc4c(cc23)C(C)(C)CCN4C)s1.F[P-](F)(F)(F)(F)F` [3-S—PF6], the “Uptake MFI” value [1] was 45685 (±2726), the “% Extrusion” value [1] was 84.91 (±1.57) % and the “ΦF, MeOH” value [2] was 0.07 ± 0.01. The “effect on ATPase activity in P-gp” value [3] was “inhibit ATPase activity” and the “log P” value [4] was 1.7.

In the case of `CCN(CC)C(=O)c1ccc(-c2c3ccc(=[N+](C)C)cc-3sc3cc4c(cc23)C(C)(C)CCN4C)s1.F[P-](F)(F)(F)(F)F` [4-S—PF6], the “Uptake MFI” value [1] is reported as 66500, the “% Extrusion” value [1] is reported as 92.20 (±0.55) % and the “ΦF, MeOH” value [2] is reported as 0.09 ± 0.01. For the same compound, the “effect on ATPase activity in P-gp” value [3] was “stimulate ATPase activity” and the “log P” value [4] was 1.5.

For `CN1CCC(C)(C)c2cc3c(-c4ccc(C(=S)N5CCCCC5)s4)c4ccc(=[N+](C)C)cc-4sc3cc21.F[P-](F)(F)(F)(F)F` [1-S—PF6], the “Uptake MFI” value [1] was 30229 (±1124), the “% Extrusion” value [1] was 84.16 (±3.00) % and the “ΦF, MeOH” value [2] was 0.07 ± 0.01. For the same compound, the “effect on ATPase activity in P-gp” value [3] was “inhibit ATPase activity” and the “log P” value [4] was 1.2.

With `CCN(CC)C(=S)c1ccc(-c2c3ccc(N(C)C)cc3[s+]c3c4c5c(cc23)CCCN5CCC4)s1.[Cl-]` [7-S—Cl] the “Uptake MFI” value [1] was 63950 (±5511), the “% Extrusion” value [1] was 74.88 (±3.62) % and the “log P” value [4] was 2.55 ± 0.02.

In the case of `CCN(CC)C(=S)c1ccc(-c2c3ccc(N(C)C)cc3[s+]c3c4c5c(cc23)CCCN5CCC4)s1.F[P-](F)(F)(F)(F)F` [7-S—PF6], the “Uptake MFI” value [1] is listed as 87456 (±10089), the “% Extrusion” value [1] is listed as 73.25 (±2.15) % and the “effect on ATPase activity in P-gp” value [3] is listed as “inhibit ATPase activity”. The “log P” value [4] was 2.7.

In the case of `CCN(CC)C(=S)c1ccc(-c2c3ccc(N(C)C)cc3[se+]c3c4c5c(cc23)CCCN5CCC4)s1.[Cl-]` [7-Se—Cl, 12-(Dimethylamino)-2,3,6,7-tetrahydro-9-(5-(diethylcarbamothioyl)-thiophen-2-yl)-1H,5H-selenoxantheno[2,3,4-ij]quinolizin-14-ium chloriode], the “Uptake MFI” value [1] is reported as 14935 (±1810), the “% Extrusion” value [1] is reported as 81.23 (±2.56) % and the “log P” value (pH 7.4) is reported as 3.00 ± 0.02.

For `CN(C)c1ccc2c(-c3ccc(C(=S)N4CCCCC4)s3)c3cc4c5c(c3[s+]c2c1)CCCN5CCC4.F[P-](F)(F)(F)(F)F` [5-S—PF6], the “Uptake MFI” value [1] was 80192 (±4122), the “% Extrusion” value [1] was 76.52 (±4.79) % and the “ΦF, MeOH” value [2] was 0.28 ± 0.01. The “effect on ATPase activity in P-gp” value [3] was “inhibit ATPase activity” and the “log P” value [4] was 1.7.

In the case of `CN1CCC(C)(C)c2cc3c(-c4ccc(C(=S)N5CCCCC5)s4)c4ccc(=[N+](C)C)cc-4sc3cc21.[Cl-]` [1-S—Cl], the “Uptake MFI” value [1] is reported as 30070 (±2481), the “% Extrusion” value [1] is reported as 84.97 (±2.87) % and the “ΦF, MeOH” value [2] is reported as 0.07 ± 0.01. The “log P” value [4] was 1.92 ± 0.08.

In the case of `CCN(CC)C(=S)c1ccc(-c2c3ccc(=[N+](C)C)cc-3sc3cc4c(cc23)C(C)(C)CCN4C)s1.[Cl-]` [3-S—Cl], the “Uptake MFI” value [1] is reported as 38237 (±2684), the “% Extrusion” value [1] is reported as 86.81 (±0.89) % and the “ΦF, MeOH” value [2] is reported as 0.07 ± 0.01. For the same compound, the “log P” value [4] was 1.98 ± 0.06.

In the case of `CN(C)c1ccc2c(-c3ccc(C(=O)N4CCCCC4)s3)c3cc4c5c(c3[s+]c2c1)CCCN5CCC4.[Cl-]` [6-S—Cl], the “Uptake MFI” value [1] is reported as 122500, the “% Extrusion” value [1] is reported as 82.10 (±1.17) % and the “ΦF of sulfur analogue relative to selenium analogue” value [2] is reported as “roughly 30 fold”. The “ΦF, MeOH” value [2] was 0.36 ± 0.01 and the “log P” value [4] was 2.69 ± 0.02.
